Measurements: patent publication US7960549B2, “Solid forms of a chemokine receptor antagonist and methods of use thereof” (priority 2004, dated 2011)
Structures can show the parent of a compound that is named as a salt.

Legend:
Format in all cases: physicochemical
[1] = Thermal gravimetric analysis (TGA)
Procedure: Measurements utilizing thermal gravimetric analysis (TGA) are carried out on a T.A. instruments TGAQ500 analyzer. Mass calibration is performed with 10 and 100 mg certified masses. Temperature calibration is performed with Alumel® and nickel standards (Curie points of respectively 154° C. and 354° C.). Samples are exposed to a constant nitrogen stream of 60 ml/min, and temperature ranges from room temperature to 350° C. at a 5° C./min rate. The quantity of product tested is between 2 and 13 mg. The sample is deposited in an open aluminum sample pan, which is itself placed in a platinum pan. The temperatures identified from TGA scans of a particular sample are accurate to within ±3° C. Simultaneous TGA and DSC measurements are carried out using a […] thermal analysis system produced by the […] corporation. A liquid nitrogen cooling system makes it possible to work at temperatures below 20° C. The emitted gases, upon sample heating, are carried by a transfer capillary tube to a Pfeiffer mass spectrometer, the capillary tube heated to 150° C. The mass spectrometer can analyze molecular fragments at <<m/e>> ratios between 1 and 200 uma. A sample with a mass between 1 and 27 mg is contained in an open concave aluminum sample pan (75 μL capacity) exposed to a nitrogen stream. The sample is heated at a rate of 1 or 5° C./min.

[2] = Differential scanning calorimetry (DSC)
Procedure: Differential scanning calorimetry (DSC) analyses are performed using a T.A Instruments Q1000 thermal analyser. Analyses are carried out using nitrogen purge gas flowing at an average rate of 50 ml/min. A mechanical compressor cools the system, and equilibrates the instruments being used at ambient temperature between analyses. […] Energy calibration is performed with a certified indium calibrator (melting enthalpy of 28.45 J/g), applying a heating rate of 5° C./min. The temperatures identified from DSC scans of a particular sample are accurate to within ±3° C. […] Modulated temperature differential scanning calorimetry (MTDSC) is also used since deconvolution of the total heat flow into reversing and non-reversing heat flows allows the transitions to be easily identified. The samples were submitted to the same experimental temperature program: after the equilibration of the sample at −5° C., the samples were heated through a modulated program from −5° C. to 210° C. at a rate of 1° C./min. […] Experiments are performed using crimped aluminium sample pans or open pans in some cases. The quantity of product analysed is typically between 2 and 13 mg.

[3] = Water sorption/desorption cycling (dynamic vapor sorption, DVS) at 25° C., with XRPD before and after; conditions: for global / net weight loss after all 4 water sorption/desorption cycles: four cycles between 100% and 0% relative humidity; for XRPD before and after water sorption/desorption cycling: four consecutive cycles, start at 40%, cycled between 100% and 0% relative humidity, mixed samples
Procedure: Water sorption measurements are performed on a DVS-1 automated gravimetric vapor sorption analyser (Surface Measurement Systems Ltd., London, UK). The DVS-1 measures the uptake and loss of vapor gravimetrically using a Cahn D200 recording ultra-microbalance with a mass resolution of ±0.1 μg. The relative humidity around the sample is controlled by mixing saturated and dry carrier gas streams using mass flow controllers. The temperature is maintained within ±0.1° C. by enclosing the entire system in a temperature-controlled incubator. A sample size between 15 and 20 mg is used. In general, the error in % (w/w) identified in a tested sample is ±0.1% (w/w).
Two protocols are utilized to operate the DVS. In one protocol, a sample is dried at 0% relative humidity (RH) to remove any surface water present and establish a dry, baseline mass. Next, the sample is exposed to the following relative humidity profile: 0%, 10%, 20%, 30%, 40%, 50%, 60%, 70%, 80%, 90%, 80%, 70%, 60%, 50%, 40%, 30%, 20%, 10%, 0%. In some instances, this profile is repeated, yielding 4 sets of data going up and down in RH. In another protocol, the sample is first equilibrated at 40% RH, then it was exposed to the following relative humidity profile: 40%, 50%, 60%, 70%, 80%, 90%, 100%, 90%, 80%, 70%, 60%, 50% 40% 30%, 20% 10%, 0%, 10%, 20%, 30%, 40%. […] If equilibrium state is not reached, the change in relative humidity took place automatically after 360 or 600 minutes. From the complete moisture sorption and desorption profile, an isotherm is calculated using the DVS Advanced Analysis Suite v3.6. All experiments were performed at 25° C.

[4] = Controlled temperature (isothermal) X-ray powder diffraction: thermal stability of the crystalline form; conditions: dry nitrogen; for form conversion as the temperature is raised (isothermal XRPD): ambient to 210° C.; for loss of stability (lines unique to the form disappear), isothermal XRPD: sample containing Forms E, F, and G, steps of 10° C.
Procedure: X-ray powder diffraction (XRPD) is performed on various samples of the Citrate Salt using one of three instruments. XRPD measurements with Instrument 1 utilize a Siemens-Bruker D5000 Matic powder diffractometer with a Bragg-Brentano (vertical θ-2θ configuration) parafocusing geometry. X-rays are produced from a sealed cobalt anode running at 40 kV and 30 mA. Two lines are typically emitted: CoKα1 (λ=1.7890 Å) and CoKα2 (λ=1.7929 Å). An iron β-filter limits the CoKβ (λ=1.6208 Å) radiation to about 1% of the diffracted beam at the detector. The primary beam passes through a parallel plate collimator (0.2 mm Soller slits), then through a divergence slit (0.2 mm). Diffracted X-rays are detected with a Braun 50 M multichannel linear detector having a 10°-wide detection window in angle 2θ. Scans are performed from 1.5° to 50.0° in 2θ, the scan time being 10 to 40 seconds per degree in 2θ. The error in the 2θ locations are typically within ±0.10 degrees.
In Instrument 3, XRPD measurements are performed at different temperatures to elucidate the evolution of crystal structure with temperature. Tests are carried out with a Siemens-Bruker D5000 diffractometer equipped with the Bragg Brentano parafocusing (θ-θ) geometry and an Anton-Paar TTK temperature chamber. Measurements utilize dry nitrogen or nitrogen streams having a particular humidity. The instrument specifications are substantially similar to the Siemens-Bruker D5000 Matic instrument described above (Instrument 1). Temperature is allowed to rise at a rate of 0.05° C./sec. Scans are recorded under the following conditions: a 1.5 to 50.0 degree scan in angle 2θ, 10 to 20 seconds counting time per degree in 2θ. Data are acquired in isotherm mode when the requested temperature is reached.

[5] = sample containing Forms A and D, 5° C./min
[6] = mixture of Forms A and D, 0.3° C./min
[7] = heating rate 5° C./min, sample of the single form (Form H formed from Form E sample), ±3° C.
[8] = heating rate 5° C./min, A, B, H: melting/decomposition, E: loss of water and conversion to Form H, ±3° C.
[9] = mixture of Forms A and D, 0.3° C./min, Form D: conversion to Form A, Form A: melting/decomposition
[10] = weight transition 2811 (conversion away from Form E), 5° C./min
[11] = weight transition 2812 (conversion away from Form F), 5° C./min
[12] = weight transition 2813 (conversion away from Form G), 5° C./min
[13] = weight transition 2814 (decomposition/melting of crystalline Form B, loss of citrate), 5° C./min
[14] = transition 3411 (first endothermic transition, conversion of Form E to Form B), heating rate 5° C./min
[15] = transition 3412 (second endothermic transition, conversion of Form F to Form B), heating rate 5° C./min
[16] = transition 3413 (third endothermic transition, conversion of Form G to Form B), heating rate 5° C./min
[17] = transition 3414 (fourth endothermic transition, decomposition/melting of crystalline Form B), heating rate 5° C./min
[18] = 25° C., listed as Forms E, F, and G

CC(C)(O)c1ccc2c(c1)/C(=C/CCN1CC[C@](O)(c3ccc(Cl)cc3)C(C)(C)C1)c1cccnc1CO2 [Forms A and D]
TGA second weight loss transition 1812, interpolated beginning temperature [1, 5]: 164 °C | TGA second weight loss transition 1812, temperature of maximum weight loss rate [1, 5]: 180 °C | DSC endothermic transition 1912 (release of THF), Tmax [2, 6]: 77 °C | DSC endothermic transition 1912 (release of THF), beginning temperature [2, 6]: about 60 °C | DSC endothermic transition 1912 (release of THF), enthalpy [2, 6]: 18.1 J/g | global / net weight loss after all 4 water sorption/desorption cycles ([3]; 25° C.): about 14.3 % (w/w)

CC(C)(O)c1ccc2c(c1)/C(=C/CCN1CC[C@](O)(c3ccc(Cl)cc3)C(C)(C)C1)c1cccnc1CO2 [Form G, citrate salt of (S)-4-(4-Chloro-phenyl)-1-{3-[7-(1-hydroxy-1-methyl-ethyl)-11H-10-oxa-1-aza-dibenzo[a,d]cyclohepten-5-ylidene]-propyl}-3,3-dimethyl-piperidin-4-ol]
form conversion as the temperature is raised (isothermal XRPD) [4]: converts to Form B | loss of stability (lines unique to the form disappear), isothermal XRPD [4]: ≥ 130 °C | XRPD before and after water sorption/desorption cycling ([3]; 25° C.): have dissipated

CC(C)(O)c1ccc2c(c1)/C(=C/CCN1CC[C@](O)(c3ccc(Cl)cc3)C(C)(C)C1)c1cccnc1CO2 [Form F, citrate salt of (S)-4-(4-Chloro-phenyl)-1-{3-[7-(1-hydroxy-1-methyl-ethyl)-11H-10-oxa-1-aza-dibenzo[a,d]cyclohepten-5-ylidene]-propyl}-3,3-dimethyl-piperidin-4-ol]
form conversion as the temperature is raised (isothermal XRPD) [4]: converts to Form B | loss of stability (lines unique to the form disappear), isothermal XRPD [4]: greater than 110 °C | XRPD before and after water sorption/desorption cycling ([3]; 25° C.): disappears

CC(C)(O)c1ccc2c(c1)/C(=C/CCN1CC[C@](O)(c3ccc(Cl)cc3)C(C)(C)C1)c1cccnc1CO2 [Form H, citrate salt of (S)-4-(4-Chloro-phenyl)-1-{3-[7-(1-hydroxy-1-methyl-ethyl)-11H-10-oxa-1-aza-dibenzo[a,d]cyclohepten-5-ylidene]-propyl}-3,3-dimethyl-piperidin-4-ol]
TGA weight loss of the transition ([1]; heating rate 5° C./min, sample of the single form (Form H formed from Form E sample)): 20.10 % (w/w) | TGA weight loss transition, interpolated beginning temperature [1, 7]: 127 °C | TGA weight loss transition, temperature of maximum rate of weight loss [1, 7]: 142 °C | DSC endothermic transition, Tmax [2, 8]: 141 °C | DSC endothermic transition, interpolated beginning temperature [2, 8]: 131 °C | behaviour when exposed to 10% relative humidity or higher ([3]; ambient temperatures): reversibly transforms into form E

CC(C)(O)c1ccc2c(c1)/C(=C/CCN1CC[C@](O)(c3ccc(Cl)cc3)C(C)(C)C1)c1cccnc1CO2 [Form D, citrate salt of (S)-4-(4-Chloro-phenyl)-1-{3-[7-(1-hydroxy-1-methyl-ethyl)-11H-10-oxa-1-aza-dibenzo[a,d]cyclohepten-5-ylidene]-propyl}-3,3-dimethyl-piperidin-4-ol]
transition to Form A observed by temperature controlled XRPD ([4]; sample containing Forms A and D): below 60 °C | DSC endothermic transition, Tmax [2, 9]: 52 °C | DSC endothermic transition, interpolated beginning temperature [2, 9]: about 47 °C | DSC endothermic transition, integrated enthalpy ([2]; mixture of Forms A and D, 0.3° C./min, conversion of Form D to Form A): 3.7 J/g | XRPD before and after water sorption/desorption cycling ([3]; 25° C.): disappeared after the cycling; only the signature of Form A remains

CC(C)(O)c1ccc2c(c1)/C(=C/CCN1CC[C@](O)(c3ccc(Cl)cc3)C(C)(C)C1)c1cccnc1CO2 [Form E, F, and G]
Interpolated Starting T (° C.) [1, 10]: 42 °C | T (° C.) corresponding to Max. Rate of Weight Change [1, 10]: 50 °C | Weight Loss % (w/w) [1, 10]: 1.9 % (w/w) | Interpolated Starting T (° C.) [1, 11]: 110 °C | T (° C.) corresponding to Max. Rate of Weight Change [1, 11]: 123 °C | Weight Loss % (w/w) [1, 11]: 3.6 % (w/w) | Interpolated Starting T (° C.) [1, 12]: 131 °C | T (° C.) corresponding to Max. Rate of Weight Change [1, 12]: 138 °C | Weight Loss % (w/w) [1, 12]: 1.6 % (w/w) | Interpolated Starting T (° C.) [1, 13]: 166 °C | T (° C.) corresponding to Max. Rate of Weight Change [1, 13]: 187 °C | Weight Loss % (w/w) [1, 13]: 22.6 % (w/w) | Integrated Enthalpy Change [2, 14]: 20.3 J/g | Interpolated Starting T [2, 14]: 78 °C | Tmax [2, 14]: 99 °C | Integrated Enthalpy Change [2, 15]: 5.8 J/g | Interpolated Starting T [2, 15]: 119 °C | Tmax [2, 15]: 124 °C | Integrated Enthalpy Change [2, 16]: 2.4 J/g | Interpolated Starting T [2, 16]: 131 °C | Tmax [2, 16]: 136 °C | Interpolated Starting T [2, 17]: 165 °C | Tmax [2, 17]: 181 °C | global / net weight loss after all 4 water sorption/desorption cycles [3, 18]: about 7.5 % (w/w) | weight change / water uptake between 10% and 90% relative humidity [3, 18]: 2.10 % (w/w) | weight gain / water uptake as relative humidity is increased from 0% to 10% [3, 18]: 3.76 % (w/w)
